Measured values reported in ChEMBL document CHEMBL1156052, “Discovery of 1-[4-(3-chlorophenylamino)-1-methyl-1H-pyrrolo[3,2-c]pyridin-7-yl]-1-morpholin-4-ylmethanone (GSK554418A), a brain penetrant 5-azaindole CB2 agonist for the treatment of chronic pain” (J Med Chem, 2009).
pEC50, pIC50: −log10 of the molar value. ≈ marks a conversion by molar mass, not a printed value. Calls of active or inactive are those of the source. The calls are words filed in the database; no cut-off is given here.

Legend:
Rattus norvegicus [1] = experiment: Analgesic activity in rat joint model of chronic pain assessed as reversal of hypersensitivity at 10 mg/kg, po BID for 5 days; assay type: functional, organism-based; design: dose 10 mg/kg
Cytochrome P450 3A4 = Cytochrome P450 3A4 (Homo sapiens, UniProt P08684); experiment: Inhibition of CYP3A4; assay type: ADME
[2] = Drug level in blood of rat joint model of chronic pain at 3 mg/kg, po BID for 5 days; assay type: ADME, organism-based; design: dose 3 mg/kg, route oral; conditions: read-out: Drug uptake
[3] = molecular target: Histamine H2 receptor (Homo sapiens) (UniProt P25021); experiment: Binding affinity to human histamine H2 receptor at 1 uM
[4] = molecular target: Adenosine receptor A2a (Homo sapiens) (UniProt P29274); experiment: Binding affinity to human adenosine A2A receptor at 1 uM
[5] = molecular target: Beta-1 adrenergic receptor (Homo sapiens) (UniProt P08588); experiment: Binding affinity to human beta-1 adrenergic receptor at 1 uM
[6] = Binding affinity to adrenergic alpha1 receptor at 1 uM
[7] = molecular target: D(2) dopamine receptor (Homo sapiens) (UniProt P14416); experiment: Binding affinity to human dopamine D2S receptor at 1 uM
Rattus norvegicus [8] = experiment: Antihyperalgesic activity in complete Freund's adjuvant rat model of inflammatory pain assessed as reversal of hypersensitivity at 0.1 mg/kg, po administered as single dose measured after 1 hr; assay type: functional, organism-based; design: dose 0.1 mg/kg
[9] = Solubility in simulated intestinal fluid at pH 5; assay type: physicochemical
[10] = Efflux ratio of apparent permeability […] side of MDR1-expressing MDCK2 cells after 60 mins by liquid scintillation counting; assay type: ADME, cell-based, Canis lupus familiaris; conditions: dog, mdck-ii, 1 h
[11] = molecular target: Melanocortin receptor 4 (Homo sapiens) (UniProt P32245); experiment: Binding affinity to human MC4 receptor at 1 uM
[12] = molecular target: B2 bradykinin receptor (Homo sapiens) (UniProt P30411); experiment: Binding affinity to human bradykinin B2 receptor at 1 uM
Rattus norvegicus [13] = experiment: Antihyperalgesic activity in complete Freund's adjuvant rat model of inflammatory pain assessed as reversal of hyperalgesia at 1 mg/kg, po administered as single dose; assay type: functional, organism-based; design: dose 1 mg/kg
[14] = Drug level in rat blood at 130 mg/kg, po after 1 hr; assay type: ADME, organism-based; design: dose 130 mg/kg, route oral; conditions: read-out: Drug uptake
Cytochrome P450 2D6 = Cytochrome P450 2D6 (Homo sapiens, UniProt P10635); experiment: Inhibition of CYP2D6; assay type: ADME
[15] = molecular target: C-X-C chemokine receptor type 2 (Homo sapiens) (UniProt P25025); experiment: Binding affinity to human CXCR2 receptor at 1 uM
[16] = Drug level in rat blood at 130 mg/kg, po after 5 hrs; assay type: ADME, organism-based; design: dose 130 mg/kg, route oral; conditions: read-out: Drug uptake
[17] = molecular target: Alpha-2A adrenergic receptor (Homo sapiens) (UniProt P08913); experiment: Binding affinity to adrenergic alpha2 receptor at 1 uM
[18] = Intrinsic clearance in human liver microsomes; assay type: ADME, Microsome
Rattus norvegicus [19] = experiment: Analgesic activity in po dosed rat joint model of chronic pain assessed as minimum effective dose administered BID for 5 days; assay type: functional; conditions: 120 h, read-out: MED
[20] = molecular target: Muscarinic acetylcholine receptor M3 (Homo sapiens) (UniProt P20309); experiment: Binding affinity to human muscarinic M3 receptor at 1 uM
Cannabinoid receptor 2 [21] = molecular target: T1, Cannabinoid receptor 2 (Homo sapiens, UniProt P34972); experiment: Agonist activity at human recombinant cannabinoid CB2 receptor expressed in CHOK1 cells assessed as forskolin-induced cAMP production by luciferase assay; assay type: functional, cell-based, CHO-K1
[22] = molecular target: D(1A) dopamine receptor (Homo sapiens) (UniProt P21728); experiment: Binding affinity to human dopamine D1 receptor at 1 uM
[23] = molecular target: Cholecystokinin receptor type A (Homo sapiens) (UniProt P32238); experiment: Binding affinity to human CCKA receptor at 1 uM
Cannabinoid receptor 2 [24] = molecular target: T1, Cannabinoid receptor 2; experiment: Agonist activity at human recombinant cannabinoid CB2 receptor expressed in MMY23 Saccharomyces cerevisiae assessed as degradation of FDGlu to fluorescein after 24 hrs by spectrofluorimetry relative to HU210; assay type: functional
Rattus norvegicus [25] = experiment: Antihyperalgesic activity in complete Freund's adjuvant rat model of inflammatory pain assessed as reversal of hyperalgesia at 1 mg/kg, po administered as single dose in presence of 15 mg/kg, ip cannabinoid CB2 receptor antagonsit AM630; assay type: functional, organism-based
[26] = Intrinsic clearance in rat liver microsomes; assay type: ADME, Microsome
Cytochrome P450 2C9 = Cytochrome P450 2C9 (Homo sapiens, UniProt P11712); experiment: Inhibition of CYP2C9; assay type: ADME
Rattus norvegicus [27] = experiment: Antihyperalgesic activity in po dosed complete Freund's adjuvant rat model of inflammatory pain assessed as reduction of hypersensitivity administered as single dose; assay type: functional
[28] = Ratio of drug level in brain to blood in Sprague-Dawley rat at 0.4 mg/kg/hr, iv up to 12 hrs; assay type: ADME, organism-based; design: route intravenous
[29] = molecular target: 5-hydroxytryptamine receptor 5A (Homo sapiens) (UniProt P47898); experiment: Binding affinity to 5HT5A receptor at 1 uM
[30] = Ratio of drug level in brain to blood in rat 130 mg/kg, po after 3 hrs; assay type: ADME, organism-based; design: dose 130 mg/kg, route oral
[31] = Drug level in blood of complete Freund's adjuvant rat model of inflammatory pain at 0.1 mg/kg, po administered as single dose measured after 1 hr; assay type: ADME, organism-based; design: dose 0.1 mg/kg, route oral; conditions: read-out: Drug uptake
[32] = molecular target: Type-1 angiotensin II receptor (Homo sapiens) (UniProt P30556); experiment: Binding affinity to human AT1 receptor at 1 uM
[33] = molecular target: 5-hydroxytryptamine receptor 2A (Homo sapiens) (UniProt P28223); experiment: Binding affinity to 5HT2A receptor at 1 uM
[34] = molecular target: 5-hydroxytryptamine receptor 1A (Homo sapiens) (UniProt P08908); experiment: Binding affinity to 5HT1A receptor at 1 uM
[35] = molecular target: Substance-K receptor (Homo sapiens) (UniProt P21452); experiment: Binding affinity to human NK2 receptor at 1 uM
[36] = molecular target: Sodium-dependent noradrenaline transporter (Homo sapiens) (UniProt P23975); experiment: Binding affinity to NET at 1 uM
Cytochrome P450 1A2 = Cytochrome P450 1A2 (Homo sapiens, UniProt P05177); experiment: Inhibition of CYP1A2; assay type: ADME
[37] = molecular target: Muscarinic acetylcholine receptor M1 (Homo sapiens) (UniProt P11229); experiment: Binding affinity to human muscarinic M1 receptor at 1 uM
[38] = molecular target: Kappa-type opioid receptor (Homo sapiens) (UniProt P41145); experiment: Binding affinity to kappa opioid receptor at 1 uM
[39] = Drug level in blood of rat joint model of chronic pain at 10 mg/kg, po BID for 5 days; assay type: ADME, organism-based; design: dose 10 mg/kg, route oral; conditions: read-out: Drug uptake
[40] = molecular target: Endothelin-1 receptor (Homo sapiens) (UniProt P25101); experiment: Binding affinity to human ETA receptor at 1 uM
[41] = Drug level in rat blood at 130 mg/kg, po after 3 hrs; assay type: ADME, organism-based; design: dose 130 mg/kg, route oral; conditions: read-out: Drug uptake
[42] = Drug level in Sprague-Dawley rat blood at 2 mg/kg, po after 0.8 hrs; assay type: ADME, organism-based; design: dose 2 mg/kg, route oral; conditions: read-out: Drug uptake
[43] = molecular target: Galanin receptor type 2 (Homo sapiens) (UniProt O43603); experiment: Binding affinity to human GAL2 receptor at 1 uM
[44] = molecular target: Adenosine receptor A3 (Homo sapiens) (UniProt P0DMS8); experiment: Binding affinity to human adenosine A3 receptor at 1 uM
[45] = Binding affinity to central benzodiazepine receptor at 1 uM

T1 sequence (P34972 whole entry): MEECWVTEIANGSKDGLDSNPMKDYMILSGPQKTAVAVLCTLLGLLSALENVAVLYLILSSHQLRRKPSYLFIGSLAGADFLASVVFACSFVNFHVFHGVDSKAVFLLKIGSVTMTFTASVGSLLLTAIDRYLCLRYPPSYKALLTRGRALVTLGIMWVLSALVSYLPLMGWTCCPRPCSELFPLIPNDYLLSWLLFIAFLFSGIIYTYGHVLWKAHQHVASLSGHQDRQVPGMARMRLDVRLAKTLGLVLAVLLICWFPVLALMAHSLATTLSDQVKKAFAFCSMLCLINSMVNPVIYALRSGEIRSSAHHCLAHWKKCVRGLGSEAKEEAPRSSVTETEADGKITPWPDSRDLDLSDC
Sequence of Melanocortin receptor 4 (Homo sapiens) (P32245 whole entry): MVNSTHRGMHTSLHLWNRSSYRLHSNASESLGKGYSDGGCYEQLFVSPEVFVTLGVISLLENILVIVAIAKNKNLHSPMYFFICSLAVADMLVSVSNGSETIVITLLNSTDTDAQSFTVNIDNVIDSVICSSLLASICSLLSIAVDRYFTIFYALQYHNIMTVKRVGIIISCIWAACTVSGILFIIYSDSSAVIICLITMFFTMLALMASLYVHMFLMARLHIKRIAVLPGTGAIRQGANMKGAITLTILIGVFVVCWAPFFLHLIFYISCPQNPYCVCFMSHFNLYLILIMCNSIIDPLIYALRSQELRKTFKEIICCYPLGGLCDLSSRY
Sequence of Substance-K receptor (Homo sapiens) (P21452 whole entry): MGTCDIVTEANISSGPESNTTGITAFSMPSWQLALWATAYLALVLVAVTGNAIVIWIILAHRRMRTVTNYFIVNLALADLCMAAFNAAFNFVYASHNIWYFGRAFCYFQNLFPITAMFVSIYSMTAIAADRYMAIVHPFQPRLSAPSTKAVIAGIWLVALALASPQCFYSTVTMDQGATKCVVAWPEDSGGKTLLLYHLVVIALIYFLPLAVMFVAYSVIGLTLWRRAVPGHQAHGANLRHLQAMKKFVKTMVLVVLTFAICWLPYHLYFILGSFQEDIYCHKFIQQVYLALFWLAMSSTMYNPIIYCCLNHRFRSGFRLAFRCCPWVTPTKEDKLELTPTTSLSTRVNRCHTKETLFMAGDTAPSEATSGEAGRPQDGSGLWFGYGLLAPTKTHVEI
Sequence of Adenosine receptor A3 (Homo sapiens) (P0DMS8 whole entry): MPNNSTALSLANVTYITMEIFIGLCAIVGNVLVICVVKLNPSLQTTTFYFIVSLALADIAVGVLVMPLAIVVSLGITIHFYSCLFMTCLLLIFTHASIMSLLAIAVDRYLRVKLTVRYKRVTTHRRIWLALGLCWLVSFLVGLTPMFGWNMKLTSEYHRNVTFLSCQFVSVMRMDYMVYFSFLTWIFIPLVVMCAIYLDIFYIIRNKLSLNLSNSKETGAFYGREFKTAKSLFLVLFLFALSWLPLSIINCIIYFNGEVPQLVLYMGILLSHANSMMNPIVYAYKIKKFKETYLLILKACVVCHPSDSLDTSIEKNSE
Sequence of Cytochrome P450 2D6 (P10635 whole entry): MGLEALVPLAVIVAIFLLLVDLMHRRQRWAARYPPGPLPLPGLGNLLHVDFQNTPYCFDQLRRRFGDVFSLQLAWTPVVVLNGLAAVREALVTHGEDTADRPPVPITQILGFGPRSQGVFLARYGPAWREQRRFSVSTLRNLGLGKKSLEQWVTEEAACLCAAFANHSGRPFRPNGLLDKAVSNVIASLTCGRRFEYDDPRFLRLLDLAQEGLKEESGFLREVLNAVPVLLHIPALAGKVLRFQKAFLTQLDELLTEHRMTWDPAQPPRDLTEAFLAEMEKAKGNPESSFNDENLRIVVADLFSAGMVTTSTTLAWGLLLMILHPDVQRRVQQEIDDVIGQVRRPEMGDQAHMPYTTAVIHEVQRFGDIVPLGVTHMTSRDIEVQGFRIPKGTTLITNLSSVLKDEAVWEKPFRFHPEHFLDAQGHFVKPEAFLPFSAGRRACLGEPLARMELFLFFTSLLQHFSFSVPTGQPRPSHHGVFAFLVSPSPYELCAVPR
Sequence of C-X-C chemokine receptor type 2 (Homo sapiens) (P25025 whole entry): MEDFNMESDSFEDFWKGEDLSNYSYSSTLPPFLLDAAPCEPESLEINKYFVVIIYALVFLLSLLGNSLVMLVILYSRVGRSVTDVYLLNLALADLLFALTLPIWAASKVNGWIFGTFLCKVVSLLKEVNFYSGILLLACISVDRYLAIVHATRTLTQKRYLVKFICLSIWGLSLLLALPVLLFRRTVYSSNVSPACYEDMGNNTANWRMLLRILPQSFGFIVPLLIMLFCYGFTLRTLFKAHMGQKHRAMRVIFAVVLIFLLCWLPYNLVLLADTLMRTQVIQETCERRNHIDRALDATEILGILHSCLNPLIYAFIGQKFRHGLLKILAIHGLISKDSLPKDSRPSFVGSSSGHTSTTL
Sequence of Alpha-2A adrenergic receptor (Homo sapiens) (P08913 whole entry): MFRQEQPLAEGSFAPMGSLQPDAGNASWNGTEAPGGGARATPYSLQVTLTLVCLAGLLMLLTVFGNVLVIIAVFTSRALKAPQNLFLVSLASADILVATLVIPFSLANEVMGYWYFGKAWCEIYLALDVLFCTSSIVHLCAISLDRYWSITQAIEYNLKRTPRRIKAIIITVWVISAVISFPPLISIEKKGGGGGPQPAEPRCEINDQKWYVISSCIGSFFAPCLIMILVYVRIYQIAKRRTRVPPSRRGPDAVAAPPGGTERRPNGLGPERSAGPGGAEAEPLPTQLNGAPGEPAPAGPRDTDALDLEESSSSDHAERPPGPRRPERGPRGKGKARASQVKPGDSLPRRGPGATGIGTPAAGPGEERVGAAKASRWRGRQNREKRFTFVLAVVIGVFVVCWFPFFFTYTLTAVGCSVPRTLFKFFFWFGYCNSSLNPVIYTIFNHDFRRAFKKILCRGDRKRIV
Sequence of 5-hydroxytryptamine receptor 1A (Homo sapiens) (P08908 whole entry): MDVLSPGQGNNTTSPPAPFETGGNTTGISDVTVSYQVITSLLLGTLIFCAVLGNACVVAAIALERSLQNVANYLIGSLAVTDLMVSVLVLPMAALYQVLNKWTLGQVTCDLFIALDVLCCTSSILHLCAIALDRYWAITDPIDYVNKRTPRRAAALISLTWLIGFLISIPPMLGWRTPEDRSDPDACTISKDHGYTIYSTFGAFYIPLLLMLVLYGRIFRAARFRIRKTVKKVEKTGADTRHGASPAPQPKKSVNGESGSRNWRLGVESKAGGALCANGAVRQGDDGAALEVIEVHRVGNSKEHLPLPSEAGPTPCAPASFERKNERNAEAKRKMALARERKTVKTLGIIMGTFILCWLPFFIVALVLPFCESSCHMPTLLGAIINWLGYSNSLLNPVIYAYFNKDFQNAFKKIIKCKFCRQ
Sequence of D(2) dopamine receptor (Homo sapiens) (P14416 whole entry): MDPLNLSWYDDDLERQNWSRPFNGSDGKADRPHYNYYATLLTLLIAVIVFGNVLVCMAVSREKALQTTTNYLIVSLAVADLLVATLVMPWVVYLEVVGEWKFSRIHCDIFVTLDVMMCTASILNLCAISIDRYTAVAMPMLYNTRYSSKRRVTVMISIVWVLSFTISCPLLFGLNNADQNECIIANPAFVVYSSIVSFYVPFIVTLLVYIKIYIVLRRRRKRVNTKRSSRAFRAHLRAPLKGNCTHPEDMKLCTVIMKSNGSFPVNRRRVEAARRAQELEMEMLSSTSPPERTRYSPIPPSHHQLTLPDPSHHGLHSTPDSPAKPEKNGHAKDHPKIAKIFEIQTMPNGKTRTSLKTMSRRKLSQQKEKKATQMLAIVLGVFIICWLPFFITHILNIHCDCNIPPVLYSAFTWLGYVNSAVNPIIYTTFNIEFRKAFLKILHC
Sequence of Type-1 angiotensin II receptor (Homo sapiens) (P30556 whole entry): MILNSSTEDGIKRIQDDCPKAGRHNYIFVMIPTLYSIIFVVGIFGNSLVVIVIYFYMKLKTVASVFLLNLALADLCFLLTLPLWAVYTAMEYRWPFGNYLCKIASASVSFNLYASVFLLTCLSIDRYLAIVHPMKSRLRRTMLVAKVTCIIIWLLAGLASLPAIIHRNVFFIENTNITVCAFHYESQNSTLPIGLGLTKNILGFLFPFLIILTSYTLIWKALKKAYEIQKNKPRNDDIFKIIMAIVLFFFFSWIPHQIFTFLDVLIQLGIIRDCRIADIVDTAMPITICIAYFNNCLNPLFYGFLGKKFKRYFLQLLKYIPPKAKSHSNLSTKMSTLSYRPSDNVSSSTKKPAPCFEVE
Sequence of Cytochrome P450 2C9 (P11712 whole entry): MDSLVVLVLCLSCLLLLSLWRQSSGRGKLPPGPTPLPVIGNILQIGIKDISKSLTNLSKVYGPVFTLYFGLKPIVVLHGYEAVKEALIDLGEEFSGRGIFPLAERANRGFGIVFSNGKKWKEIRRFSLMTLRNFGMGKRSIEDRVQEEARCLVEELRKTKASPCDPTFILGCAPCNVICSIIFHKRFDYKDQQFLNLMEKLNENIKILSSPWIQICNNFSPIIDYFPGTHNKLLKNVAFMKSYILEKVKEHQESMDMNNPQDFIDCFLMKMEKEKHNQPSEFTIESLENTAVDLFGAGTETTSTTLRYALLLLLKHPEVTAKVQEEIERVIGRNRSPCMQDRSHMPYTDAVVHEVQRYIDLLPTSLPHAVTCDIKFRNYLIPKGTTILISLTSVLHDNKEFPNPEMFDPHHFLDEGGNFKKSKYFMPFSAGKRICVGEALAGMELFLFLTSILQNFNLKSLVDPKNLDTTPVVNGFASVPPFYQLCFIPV
Sequence of Kappa-type opioid receptor (Homo sapiens) (P41145 whole entry): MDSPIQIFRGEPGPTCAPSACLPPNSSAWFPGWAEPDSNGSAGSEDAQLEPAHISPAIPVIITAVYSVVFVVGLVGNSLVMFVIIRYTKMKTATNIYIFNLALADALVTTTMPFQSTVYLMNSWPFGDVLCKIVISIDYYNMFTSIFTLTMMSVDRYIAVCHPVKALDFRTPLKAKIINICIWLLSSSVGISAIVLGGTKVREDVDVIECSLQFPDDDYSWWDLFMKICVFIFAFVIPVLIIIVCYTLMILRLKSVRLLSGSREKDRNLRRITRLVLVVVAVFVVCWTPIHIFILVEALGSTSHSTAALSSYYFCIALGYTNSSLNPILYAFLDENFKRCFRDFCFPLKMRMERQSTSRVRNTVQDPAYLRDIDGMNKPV

In the case of Cn1ccc2c(Nc3cccc(Cl)c3)ncc(C(=O)N3CCOCC3)c21, the Activity (Rattus norvegicus [1]) was “Active”, the pIC50 (Cytochrome P450 3A4) was 4.62 and the concentration at 120 h [2] was 1.8 µM. It also gave an Activity [3] of under 10%, an Activity [4] of under 10% and an Activity [5] of under 10%. For the same molecule, the Activity [6] was under 10%, the Activity [7] was under 10% and the Activity (Rattus norvegicus [8]) was “Active”. It also gave a solubility [9] of 590 µg/mL (≈ 1590 µM), a Ratio [10] of 2.9 and an Activity [11] of under 10%. The Activity [12] was under 10%, the Activity (Rattus norvegicus [13]) was “Active” and the concentration at 1 h [14] was 8.6 µM. The pIC50 (Cytochrome P450 2D6) was 4.68, the Activity [15] was under 10% and the concentration at 5 h [16] was 12.3 µM. For the same molecule, the Activity [17] was 25%, the CLint scaled [18] was under 0.6 mL/min/kg and the minimal effective dose (Rattus norvegicus [19]) was 3 mg/kg. It also gave an Activity [20] of under 10%, a pEC50 (Cannabinoid receptor 2 [21]) of 8.10 and an Activity [22] of under 10%. For the same molecule, the Activity [23] was under 10%, the Efficacy (Cannabinoid receptor 2 [24]) was 91% and the Activity (Rattus norvegicus [25]) was “Active”. It also gave a CLint scaled [26] of under 0.8 mL/min/kg, a pIC50 (Cytochrome P450 2C9) of 4.38 and an ED50 (Rattus norvegicus [27]) of 0.02 mg/kg. The Kp at 12 h [28] was 1.04, the Activity [29] was 15% and the Kp at 3 h [30] was 1. For the same molecule, the concentration at 1 h [31] was 0.097 µM, the Activity [32] was under 10% and the Activity [33] was 11%. It also gave an Activity [34] of 24%, an Activity [35] of under 10% and an Activity [36] of 15%. For the same molecule, the pIC50 (Cytochrome P450 1A2) was under 4.00, the Activity [37] was under 10% and the Activity [38] was 11%. The concentration at 120 h [39] was 6.1 µM, the Activity [40] was under 10% and the concentration at 3 h [41] was 10 µM. The concentration at 0.8 h [42] was 1.1 µM, the Activity [43] was under 10% and the Activity [44] was under 10%. The Activity [45] was under 10%.
